# Measurements from ChEMBL document CHEMBL5370609, “Amidine-Based Cationic Conjugated Oligoelectrolytes with Antimicrobial Activity against Pseudomonas aeruginosa Biofilms” (J Med Chem, 2023).
# Calls of active or inactive are those of the source. No cut-off for these calls is given here.
# Tests used:
# Escherichia coli = test: Antibacterial activity against Escherichia coli ATCC 25922 assessed as inhibition of bacterial growth incubated for overnight by broth microdilution method; format: functional
# Staphylococcus aureus = test: Antibacterial activity against Staphylococcus aureus ATCC 29213 assessed as inhibition of bacterial growth incubated overnight by broth microdilution method; format: functional
# Klebsiella pneumoniae = test: Antibacterial activity against Klebsiella pneumoniae ATCC 700603 assessed as inhibition of bacterial growth incubated overnight by broth microdilution method; format: functional
# Pseudomonas aeruginosa [1] = test: Antibacterial activity against Pseudomonas aeruginosa ATCC 27853 assessed as inhibition of bacterial growth incubated overnight by broth microdilution method; format: functional
# [2] = Cytotoxicity against human HepG2 cells assessed as reduction in cell viability incubated for 24 hrs by MTT assay; format: toxicity, cell-based
# [3] = Selectivity index, IC50 for cytotoxicity against human HepG2 cells to MIC for antibacterial activity against Pseudomonas aeruginosa ATCC 27853 assessed as inhibition of bacterial growth; format: toxicity, cell-based; conditions: read-out: Selectivity Index
# Pseudomonas aeruginosa [4] = test: Antibacterial activity against Pseudomonas aeruginosa PAO1 assessed as inhibition of bacterial growth incubated overnight by broth microdilution method; format: functional
# Pseudomonas aeruginosa [5] = test: Bactericidal activity against Pseudomonas aeruginosa PAO1 assessed as reduction in viable bacteria at 4 times of MIC measured after 4 to 8 hrs by time-kill kinetics assay; format: functional, organism-based; conditions: time 4-8 hrs
# Pseudomonas aeruginosa [6] = test: Induction of resistance development in Pseudomonas aeruginosa PAO1 assessed as fold increase in MIC measured after consecutive passages for 21 days by serial passaging assay relative to day 1 MIC; format: functional; conditions: time 21 day
# Pseudomonas aeruginosa [7] = test: Induction of spontaneous resistance development in Pseudomonas aeruginosa PAO1 assessed as frequency of resistance at 2 to 4 times of MIC incubated for 48 hrs by FoR assay; format: functional
# Pseudomonas aeruginosa [8] = test: Inhibition of biofilm formation in Pseudomonas aeruginosa PAO1 at below MIC incubated for 24 hrs by crystal violet staining based analysis; format: functional, organism-based
# Pseudomonas aeruginosa [9] = test: Inhibition of biofilm formation in Pseudomonas aeruginosa PAO1 incubated for 24 hrs by crystal violet staining based analysis; format: functional
# Pseudomonas aeruginosa [10] = test: Antibiofilm activity against preformed biofilm in Pseudomonas aeruginosa PAO1 assessed as bacteria killing at 1024 ug/ml incubated for 24 hrs by BacTiter Glo reagent based luminescence analysis; format: functional, organism-based; conditions: dose 1024.0 µg/ml
# Pseudomonas aeruginosa [11] = test: Antibiofilm activity in Pseudomonas aeruginosa PAO1 assessed as eradication of preformed biofilm at 64 to 128 ug/ml incubated for 24 hr by BacTiter Glo reagent based luminescence analysis; format: functional, organism-based; conditions: dose 64-128 µg/ml
compound,measurement,setting,value
CC(=O)O.CC(=O)O.CC(=O)O.CC(=O)O.N=C(CC1CC1)NCCCOc1cc(/C=C/c2ccc(/C=C/c3cc(OCCCNC(=N)CC4CC4)cc(OCCCNC(=N)CC4CC4)c3)cc2)cc(OCCCNC(=N)CC2CC2)c1,MIC,Escherichia coli,2 µg/mL
same,MIC,Staphylococcus aureus,1 µg/mL
same,MIC,Klebsiella pneumoniae,4 µg/mL
same,MIC,Pseudomonas aeruginosa [1],8 µg/mL
same,IC50 at 24 h,[2],256 µg/mL
same,selectivity ratio,[3],32
NC[C@H]1O[C@H](O[C@H]2[C@H](O)[C@@H](O[C@H]3O[C@H](CO)[C@@H](O)[C@H](N)[C@H]3O)[C@H](N)C[C@@H]2N)[C@H](N)C[C@@H]1O [TOBRAMYCIN],MIC,Pseudomonas aeruginosa [4],0.5 µg/mL
same,Activity,Pseudomonas aeruginosa [5],inactive
same,fold change (FC),Pseudomonas aeruginosa [6],64
same,Activity,Pseudomonas aeruginosa [7],Active
same,inhibition,Pseudomonas aeruginosa [8],inactive
same,MBIC50,Pseudomonas aeruginosa [9],0.5 µg/mL
same,MBIC90,Pseudomonas aeruginosa [9],0.5 µg/mL
same,Activity,Pseudomonas aeruginosa [10],Active
POLYMYXIN B,MIC,Pseudomonas aeruginosa [4],2 µg/mL
same,inhibition,Pseudomonas aeruginosa [8],inactive
same,MBIC50,Pseudomonas aeruginosa [9],2 µg/mL
same,MBIC90,Pseudomonas aeruginosa [9],2 µg/mL
same,Activity,Pseudomonas aeruginosa [11],100%
CC(=O)O.CC(=O)O.CC(=O)O.CC(=O)O.CCCN(CCCOc1cc(/C=C/c2ccc(/C=C/c3cc(OCCCN(CCC)C(=N)CC)cc(OCCCN(CCC)C(=N)CC)c3)cc2)cc(OCCCN(CCC)C(=N)CC)c1)C(=N)CC,MIC,Escherichia coli,2 µg/mL
same,MIC,Staphylococcus aureus,1 µg/mL
same,MIC,Klebsiella pneumoniae,8 µg/mL
same,MIC,Pseudomonas aeruginosa [1],16 µg/mL
same,IC50 at 24 h,[2],32 µg/mL
same,selectivity ratio,[3],2
CC(=O)O.CC(=O)O.CC(=O)O.CC(=O)O.CCC(=N)NCCCOc1cc(/C=C/c2ccc(/C=C/c3cc(OCCCNC(=N)CC)cc(OCCCNC(=N)CC)c3)cc2)cc(OCCCNC(=N)CC)c1,MIC,Escherichia coli,1 µg/mL
same,MIC,Staphylococcus aureus,1 µg/mL
same,MIC,Klebsiella pneumoniae,8 µg/mL
same,MIC,Pseudomonas aeruginosa [1],8 µg/mL
same,IC50 at 24 h,[2],1020 µg/mL
same,selectivity ratio,[3],128
C/N=C(/C)NCCCOc1cc(/C=C/c2ccc(/C=C/c3cc(OCCCN/C(C)=N\C)cc(OCCCN/C(C)=N/C)c3)cc2)cc(OCCCN/C(C)=N/C)c1.CC(=O)O.CC(=O)O.CC(=O)O.CC(=O)O,MIC,Escherichia coli,2 µg/mL
same,MIC,Staphylococcus aureus,1 µg/mL
same,MIC,Klebsiella pneumoniae,16 µg/mL
same,MIC,Pseudomonas aeruginosa [1],32 µg/mL
same,IC50 at 24 h,[2],> 1020 µg/mL
same,selectivity ratio,[3],> 32
CC(=O)O.CC(=O)O.CC(=O)O.CC(=O)O.CN(CCCOc1cc(/C=C/c2ccc(/C=C/c3cc(OCCCN(C)C(=N)C4CC4)cc(OCCCN(C)C(=N)C4CC4)c3)cc2)cc(OCCCN(C)C(=N)C2CC2)c1)C(=N)C1CC1,MIC,Escherichia coli,1 µg/mL
same,MIC,Staphylococcus aureus,1 µg/mL
same,MIC,Klebsiella pneumoniae,8 µg/mL
same,MIC,Pseudomonas aeruginosa [1],8 µg/mL
same,IC50 at 24 h,[2],1020 µg/mL
same,selectivity ratio,[3],128
C(=C\c1cc(OCCCNC2=NCCC2)cc(OCCCNC2=NCCC2)c1)/c1ccc(/C=C/c2cc(OCCCNC3=NCCC3)cc(OCCCNC3=NCCC3)c2)cc1.CC(=O)O.CC(=O)O.CC(=O)O.CC(=O)O,MIC,Escherichia coli,2 µg/mL
same,MIC,Staphylococcus aureus,1 µg/mL
same,MIC,Klebsiella pneumoniae,16 µg/mL
same,MIC,Pseudomonas aeruginosa [1],16 µg/mL
same,IC50 at 24 h,[2],1020 µg/mL
same,selectivity ratio,[3],64
